# Experimental data: paper PMC9596378, “Discovery and molecular basis of subtype-selective cyclophilin inhibitors” (Nature Chemical Biology, 2022)
# Several values for one entry are separate records, joined by “and”; a condition that tells them apart may be missing. Identical values can stand only once. Like-named read-outs stand apart in the source and are kept apart here.
# Legend:
# [1] = biological target: CypD (Homo sapiens, UniProt P30405); assay: Chymotrypsin coupled prolyl-isomerase assay; conditions: for prolyl-isomerase activity (raw dose-response value): CypD
# [2] = biological target: T1, CypB (Homo sapiens, UniProt P23284); assay: biochemical; conditions: for prolyl-isomerase activity (raw dose-response value): CypB
# T1 construct: PPIB (UniProtKB Entry P23284: residues 34–216); His6 with TEV site (2BT vector leader) (N); made in house; host or cells: E. coli BL21(DE3)
# Summary of the method: (§1)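 Recombinant cyclophilin (5 nM final) in 25 mM HEPES pH 7.3, 100 mM NaCl, 0.01% Triton X-100 was preincubated with compound at 2–3 °C. It was then coupled with 25 µM α-chymotrypsin and 5 µM Suc-AAPF-AMC (LiCl/TFE), and AMC fluorescence was followed for 330 s.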
# [3] = biological target: Cyp40 (Homo sapiens, UniProt Q08752); assay: Chymotrypsin coupled prolyl-isomerase assay; conditions: for prolyl-isomerase activity (raw dose-response value): in s^-1
# Summary of the method: as §1
# [4] = biological target: T2, NKTR (Homo sapiens, UniProt P30414); assay: Chymotrypsin coupled prolyl-isomerase assay; format: biochemical; conditions: for prolyl-isomerase activity (raw dose-response value): NKTR
# T2 construct: NKTR (UniProtKB Entry P30414: residues 7–179); host or cells: E. coli BL21(DE3)
# T2 sequence (P30414 7-179): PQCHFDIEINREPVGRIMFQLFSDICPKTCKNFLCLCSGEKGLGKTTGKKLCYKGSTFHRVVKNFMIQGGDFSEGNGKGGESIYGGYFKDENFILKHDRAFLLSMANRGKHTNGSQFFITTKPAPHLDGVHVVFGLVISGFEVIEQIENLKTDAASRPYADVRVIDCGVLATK
# Experimental: Adapting a previously described protocol[51], with an Agilent Bravo Velocity 11 with a 384ST head, 90 µL assay buffer (25 mM HEPES pH 7.3, 100 mM NaCl, 0.01% Triton X-100) containing 5.28 nM cyclophilin was added into a flat, clear-bottom, black 384-well plate pre-chilled in a Corning CoolBox at 2–3 °C. Five microliters of compound pre-dissolved in 5% DMSO/assay buffer was then added to appropriate wells and incubated at 2–3 °C for 5 min. Five microliters of 0.5 mM α-chymotrypsin from bovine pancreas (Type II, lyophilized powder, Millipore-Sigma) in 20% 1 mM HCl/Assay Buffer was then added to each well and incubated at 2–3 °C for 5 min. […] Using the internal liquid handling system of the FLIPR, 1 µL 0.5 mM Suc-AAPF-AMC (Chymotrypsin Substrate II, Millipore-Sigma) dissolved in 0.55 M LiCl/2,2,2-trifluoroethanol was added to each well, which was then mixed for 5 s, followed by immediate fluorescence measurements every 1 s for 330 s using a 360–380 nm excitation LED module and a 400–460 nm emission filter. Final concentrations of the plate include 5 nM cyclophilin, 0.25% DMSO, 25 µM α-chymotrypsin, 5 µM Suc-AAPF-AMC. Raw fluorescence data was analyzed by non-linear regression analysis with Prism v.9 by fitting one-phase association curves to each well. Analyses were halted after the calculated maximum fluorescent value owing to observed fluorescent bleaching during the sustained fluorescent plateau. Rate constants calculated for each well (s^−1) were then normalized to substrate only (no prolyl-isomerase) and enzyme + substrate only controls. IC50 values were calculated as the value at which 50% inhibition was achieved on the non-linear regression fitted curve of each compound.
# [5] = biological target: T3, PPIL1 (Homo sapiens, UniProt Q9Y3C6); assay: Chymotrypsin coupled prolyl-isomerase assay; format: biochemical
# T3 construct: PPIL1 (UniProtKB Entry Q9Y3C6: residues 1–166); made in house; host or cells: E. coli BL21(DE3)
# T3 sequence (Q9Y3C6 1-166): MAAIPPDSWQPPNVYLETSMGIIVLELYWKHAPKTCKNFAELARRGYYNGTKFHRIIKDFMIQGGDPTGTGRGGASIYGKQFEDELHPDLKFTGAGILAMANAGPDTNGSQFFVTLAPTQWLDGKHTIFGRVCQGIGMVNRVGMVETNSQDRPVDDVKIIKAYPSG
# [6] = biological target: T4, PPWD1 (Homo sapiens, UniProt Q96BP3); assay: Chymotrypsin coupled prolyl-isomerase assay; format: biochemical; conditions: for prolyl-isomerase activity (raw dose-response value): in s^-1
# T4 construct: PPWD1 (UniProtKB Entry Q96BP3: residues 473–646); host or cells: E. coli BL21(DE3)
# T4 sequence (Q96BP3 473-646): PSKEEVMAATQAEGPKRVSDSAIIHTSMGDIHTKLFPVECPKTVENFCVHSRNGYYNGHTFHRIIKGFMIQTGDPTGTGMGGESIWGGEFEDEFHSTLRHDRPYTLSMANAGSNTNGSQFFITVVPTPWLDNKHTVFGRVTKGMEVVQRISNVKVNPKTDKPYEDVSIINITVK
# Chain of CypD (P30405 45-207): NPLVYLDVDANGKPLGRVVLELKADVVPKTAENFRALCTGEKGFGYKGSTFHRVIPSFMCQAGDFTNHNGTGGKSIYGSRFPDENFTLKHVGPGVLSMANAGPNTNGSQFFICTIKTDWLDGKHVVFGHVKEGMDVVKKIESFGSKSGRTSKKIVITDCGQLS
# Chain of Cyp40 (Q08752 1-183): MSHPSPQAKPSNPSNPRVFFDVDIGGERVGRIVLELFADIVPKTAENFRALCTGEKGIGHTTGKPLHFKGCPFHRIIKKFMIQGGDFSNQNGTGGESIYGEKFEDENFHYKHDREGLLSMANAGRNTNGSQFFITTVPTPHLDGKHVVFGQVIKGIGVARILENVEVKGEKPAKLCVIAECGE
# T1 sequence (P23284 34-216): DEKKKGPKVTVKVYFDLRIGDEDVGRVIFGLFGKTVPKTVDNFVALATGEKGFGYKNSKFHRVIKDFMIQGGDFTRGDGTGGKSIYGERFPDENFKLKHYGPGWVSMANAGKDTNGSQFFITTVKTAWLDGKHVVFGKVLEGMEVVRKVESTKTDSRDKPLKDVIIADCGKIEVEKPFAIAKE
compound,measurement,setting,value
NCCOCCNC(=O)[C@@H]1CCNC(=O)/C=C/C(=O)N2CCC[C@](Cc3ccccc3)(C2)C(=O)N[C@@H](Cc2ccc(-c3ccccc3)cc2)C(=O)NCc2ccccc2CC(=O)N1 [Compound B2],IC50,[1],180 nM
same,prolyl-isomerase activity (raw dose-response value),[1]; dose 0.0195312 µM,0.1243 and 0.1374 and 0.1472
same,prolyl-isomerase activity (raw dose-response value),[1]; dose 0.0390625 µM,0.1094 and 0.1294 and 0.1367
same,prolyl-isomerase activity (raw dose-response value),[1]; dose 0.078125 µM,0.0906 and 0.1127 and 0.1064
same,prolyl-isomerase activity (raw dose-response value),[1]; dose 0.15625 µM,0.06823 and 0.08697 and 0.08033
same,prolyl-isomerase activity (raw dose-response value),[1]; dose 0.3125 µM,0.0483 and 0.05915 and 0.05559
same,prolyl-isomerase activity (raw dose-response value),[1]; dose 0.625 µM,0.03197 and 0.04004 and 0.03906
same,prolyl-isomerase activity (raw dose-response value),[1]; dose 1.25 µM,0.02117 and 0.02794 and 0.0263
same,prolyl-isomerase activity (raw dose-response value),[1]; dose 2.5 µM,0.0143 and 0.01947 and 0.02017
same,prolyl-isomerase activity (raw dose-response value),[1]; dose 5 µM,0.01132 and 0.01248 and 0.01357
same,prolyl-isomerase activity (raw dose-response value),[2]; dose 0.00457247 µM,0.09192 and 0.1036 and 0.1252
same,prolyl-isomerase activity (raw dose-response value),[2]; dose 0.0137174 µM,0.09377 and 0.09227 and 0.1138
same,prolyl-isomerase activity (raw dose-response value),[2]; dose 0.0411523 µM,0.08535 and 0.07571 and 0.07363
same,prolyl-isomerase activity (raw dose-response value),[2]; dose 0.123457 µM,0.076 and 0.06873 and 0.07349
same,prolyl-isomerase activity (raw dose-response value),[2]; dose 0.37037 µM,0.05318 and 0.03953 and 0.04525
same,prolyl-isomerase activity (raw dose-response value),[2]; dose 1.11111 µM,0.03174 and 0.02714 and 0.02735
same,prolyl-isomerase activity (raw dose-response value),[2]; dose 3.33333 µM,0.02002 and 0.01837 and 0.01843
same,prolyl-isomerase activity (raw dose-response value),[2]; dose 10 µM,0.01579 and 0.01529 and 0.01363
same,IC50,"[2]; wild-type CypB, read-out: Wild-Type Cyclophilin Prolyl Isomerase Inhibition IC50 Values, CypB",160 nM
same,prolyl-isomerase activity (raw dose-response value),"[3]; Cyp40, dose 0.0228624 µM",0.06439 and 0.06966 and 0.09224
same,prolyl-isomerase activity (raw dose-response value),"[3]; Cyp40, dose 0.0685871 µM",0.06672 and 0.05591 and 0.0674
same,prolyl-isomerase activity (raw dose-response value),"[3]; Cyp40, dose 0.205761 µM",0.05415 and 0.04361 and 0.05573
same,prolyl-isomerase activity (raw dose-response value),"[3]; Cyp40, dose 0.617284 µM",0.04036 and 0.03584 and 0.03686
same,prolyl-isomerase activity (raw dose-response value),"[3]; Cyp40, dose 1.85185 µM",0.02841 and 0.02381 and 0.02316
same,prolyl-isomerase activity (raw dose-response value),"[3]; Cyp40, dose 5.55556 µM",0.01852 and 0.01638 and 0.01429
same,prolyl-isomerase activity (raw dose-response value),"[3]; Cyp40, dose 16.6667 µM",0.0159 and 0.01466 and 0.0158
same,prolyl-isomerase activity (raw dose-response value),"[3]; Cyp40, dose 50 µM",0.01447 and 0.01343 and 0.01173
same,IC50,"[3]; Wild-Type Cyclophilin Prolyl Isomerase Inhibition IC50 Values, Cyp40, wild-type Cyp40",260 nM
same,prolyl-isomerase activity (raw dose-response value),[4]; dose 0.0457247 µM,0.03158 and 0.03033 and 0.03469
same,prolyl-isomerase activity (raw dose-response value),[4]; dose 0.137174 µM,0.03164 and 0.03314 and 0.03312
same,prolyl-isomerase activity (raw dose-response value),[4]; dose 0.411523 µM,0.0325 and 0.0338 and 0.02719
same,prolyl-isomerase activity (raw dose-response value),[4]; dose 1.23457 µM,0.03372 and 0.0315 and 0.03341
same,prolyl-isomerase activity (raw dose-response value),[4]; dose 3.7037 µM,0.03071 and 0.03218 and 0.03337
same,prolyl-isomerase activity (raw dose-response value),[4]; dose 11.1111 µM,0.03272 and 0.0287 and 0.03154
same,prolyl-isomerase activity (raw dose-response value),[4]; dose 33.3333 µM,0.034 and 0.032 and 0.03
same,prolyl-isomerase activity (raw dose-response value),[4]; dose 100 µM,0.0243 and 0.0254 and 0.02366
same,IC50,"[4]; prolyl-isomerase inhibition, 5 nM cyclophilin, read-out: IC50 NKTR",~100000 nM
same,IC50,"[4]; wild-type NKTR, read-out: Wild-Type Cyclophilin Prolyl Isomerase Inhibition IC50 Values, NKTR",100000 nM
same,prolyl-isomerase activity (raw dose-response value),"[5]; PPIL1, dose 0.0228624 µM",0.08321 and 0.1059 and 0.1063
same,prolyl-isomerase activity (raw dose-response value),"[5]; PPIL1, dose 0.0685871 µM",0.0991 and 0.07246 and 0.09332
same,prolyl-isomerase activity (raw dose-response value),"[5]; PPIL1, dose 0.205761 µM",0.0916 and 0.08667 and 0.07563
same,prolyl-isomerase activity (raw dose-response value),"[5]; PPIL1, dose 0.617284 µM",0.08092 and 0.07121 and 0.1066
same,prolyl-isomerase activity (raw dose-response value),"[5]; PPIL1, dose 1.85185 µM",0.07438 and 0.05377 and 0.06473
same,prolyl-isomerase activity (raw dose-response value),"[5]; PPIL1, dose 5.55556 µM",0.04981 and 0.03892 and 0.03912
same,prolyl-isomerase activity (raw dose-response value),"[5]; PPIL1, dose 16.6667 µM",0.02881 and 0.02468 and 0.02483
same,prolyl-isomerase activity (raw dose-response value),"[5]; PPIL1, dose 50 µM",0.01705 and 0.01748 and 0.0139
same,IC50,"[5]; wild-type PPIL1, read-out: Wild-Type Cyclophilin Prolyl Isomerase Inhibition IC50 Values, PPIL1",1900 nM
same,prolyl-isomerase activity (raw dose-response value),"[6]; PPWD1, dose 0.00976562 µM",0.06958 and 0.06894 and 0.06376
same,prolyl-isomerase activity (raw dose-response value),"[6]; PPWD1, dose 0.0195312 µM",0.07052 and 0.06933 and 0.06942
same,prolyl-isomerase activity (raw dose-response value),"[6]; PPWD1, dose 0.0390625 µM",0.07199 and 0.07365 and 0.06621
same,prolyl-isomerase activity (raw dose-response value),"[6]; PPWD1, dose 0.078125 µM",0.0685 and 0.06494 and 0.06712
same,prolyl-isomerase activity (raw dose-response value),"[6]; PPWD1, dose 0.15625 µM",0.06342 and 0.0629 and 0.06451
same,prolyl-isomerase activity (raw dose-response value),"[6]; PPWD1, dose 0.3125 µM",0.06089 and 0.06073 and 0.06267
same,prolyl-isomerase activity (raw dose-response value),"[6]; PPWD1, dose 0.625 µM",0.0549 and 0.05757 and 0.05993
same,prolyl-isomerase activity (raw dose-response value),"[6]; PPWD1, dose 1.25 µM",0.05311 and 0.05273 and 0.05312
same,prolyl-isomerase activity (raw dose-response value),"[6]; PPWD1, dose 2.5 µM",0.04134 and 0.04153 and 0.04427
same,prolyl-isomerase activity (raw dose-response value),"[6]; PPWD1, dose 5 µM",0.03369 and 0.0291 and 0.03053
same,prolyl-isomerase activity (raw dose-response value),"[6]; PPWD1, dose 10 µM",0.0224 and 0.02303 and 0.02481
same,IC50,"[6]; wild-type PPWD1, read-out: Wild-Type Cyclophilin Prolyl Isomerase Inhibition IC50 Values, PPWD1",3200 nM
